Experimental data reported in the supplement of paper PMC10307832.

How the values were obtained:
Assay in all cases: relative viability (nuclei count vs DMSO), 5 days (fraction); higher = more cells survive
[1] = compound: CCn1c(-c2nonc2N)nc2cnc(Oc3cccc(NC(=O)c4ccc(OCCN5CCOCC5)cc4)c3)cc21 + Nc1ncn([C@H]2C[C@H](O)[C@@H](CO)O2)c(=O)n1 [Decitabine] (partner 2 µM)
Procedure, shortened: (§1)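 Medians of duplicate plates are given as relative viability. That measure is the nuclei count in treated wells divided by the count in vehicle wells. Counts were taken on 4× images of lung cancer cell lines in 1536-well plates, 5 days after pin-tool dosing the day after seeding with one drug alone or a fixed anchor-drug dose plus five library-drug doses (not always all listed) in √10 steps.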

[2] = compound: CCn1c(-c2nonc2N)nc2cnc(Oc3cccc(NC(=O)c4ccc(OCCN5CCOCC5)cc4)c3)cc21 + O=C(CCCCCCC(=O)Nc1ccccc1)NO [Vorinostat] (partner 1 µM)
Procedure, shortened: as §1

[3] = compound: CCC1=CN=CN=C1N2CCN(CC2)CC3=NC4=C(N3)C=C(C=C4)C(F)(F)F + CCNC(=O)c1noc(-c2cc(C(C)C)c(O)cc2O)c1-c1ccc(CN2CCOCC2)cc1 [Luminespib] (partner 0.01 µM)
Procedure, shortened: as §1

[4] = compound: N=C1NC(=O)/C(=C/c2ccc(O)cc2)S1 [Mirin] + CC(C)C[C@H](NC(=O)[C@H](Cc1ccccc1)NC(=O)c1cnccn1)B(O)O [Bortezomib] (partner 0.002 µM)
Procedure, shortened: as §1

| Cell Line | relative viability ([1]; first compound 0.04 µM) | relative viability ([1]; first compound 0.1265 µM) | relative viability ([1]; first compound 0.4 µM) | relative viability ([1]; first compound 4 µM) | relative viability ([2]; first compound 0.04 µM) | relative viability ([2]; first compound 0.1265 µM) | relative viability ([2]; first compound 0.4 µM) | relative viability ([2]; first compound 1.265 µM) | relative viability ([2]; first compound 4 µM) | relative viability ([3]; first compound 0.04 µM) | relative viability ([3]; first compound 0.1265 µM) | relative viability ([3]; first compound 0.4 µM) | relative viability ([3]; first compound 1.265 µM) | relative viability ([3]; first compound 4 µM) | relative viability ([4]; first compound 0.25 µM) | relative viability ([4]; first compound 2.5 µM) | relative viability ([4]; first compound 25 µM) | relative viability ([4]; first compound 0.7906 µM) | relative viability ([4]; first compound 7.906 µM) | relative viability ([1]; first compound 1.265 µM) |
| --- | --- | --- | --- | --- | --- | --- | --- | --- | --- | --- | --- | --- | --- | --- | --- | --- | --- | --- | --- | --- |
| A549 | 0.219 | 0.304 | 0.272 | 0.108 |  |  |  |  |  |  |  |  |  |  |  |  |  |  |  |  |
| CAL-12T |  |  |  |  | 1.44 | 0.862 | 0.731 | 0.553 | 0.288 | 0.803 | 0.454 | 0.485 | 0.273 | 0.29 | 0.921 | 0.967 | 1.43 |  |  |  |
| Calu-6 |  |  |  |  |  |  |  |  |  |  |  |  |  |  | 0.925 | 1.04 | 0.841 | 1.08 | 0.895 |  |
| EBC-1 |  |  |  |  |  |  |  |  |  |  |  |  |  |  | 0.596 | 0.55 | 0.316 | 0.629 | 0.535 |  |
| HCC-78 | 0.613 | 0.78 |  | 0.634 | 0.43 | 0.42 |  | 0.505 | 0.638 |  |  |  |  |  | 0.449 | 0.524 | 0.424 | 1.03 | 0.397 | 0.74 |
| HCC-366 | 0.342 | 0.338 | 0.482 | 0.0747 | 0.396 | 0.3 | 0.137 | 0.0204 | 0.0377 |  |  |  |  |  | 1.06 | 1.09 | 0.977 | 0.986 | 0.981 | 0.108 |
| IA-LM |  |  |  |  | 1.08 | 0.997 | 1.03 | 0.998 | 1.39 |  |  |  |  |  | 0.687 | 0.757 | 0.845 | 0.961 | 0.632 |  |
| LK-2 | 0.382 | 0.385 | 0.191 | 0.29 | 0.522 | 0.37 | 0.168 | 0.178 | 0.156 | 0.204 | 0.182 | 0.159 | 0.195 | 0.202 |  |  |  |  |  | 0.183 |
| NCI-H358 | 0.219 | 0.273 | 0.19 | 0.161 | 0.814 | 0.736 | 0.715 | 0.715 | 0.511 | 0.288 | 0.263 | 0.339 |  | 0.194 |  |  |  |  |  | 0.198 |
| NCI-H522 | 0.672 | 0.819 | 0.698 | 0.621 | 1.19 | 0.697 | 0.783 | 0.742 | 0.539 | 1.16 | 1.24 | 1.15 | 0.867 | 0.987 |  |  |  |  |  | 0.648 |
| NCI-H1299 |  |  |  |  |  |  |  |  |  |  |  |  |  |  | 1.02 | 1.01 | 1.17 | 1.12 | 1.05 |  |
| NCI-H1395 | 0.701 | 0.601 | 0.646 | 0.521 | 0.753 | 0.604 | 0.658 | 0.441 | 0.44 | 0.624 | 0.775 | 0.66 | 0.651 | 0.619 |  |  |  |  |  | 0.459 |
| NCI-H1563 |  |  |  |  |  |  |  |  |  | 0.539 | 0.545 | 0.529 | 0.478 | 0.531 | 1.07 | 0.943 | 0.812 | 1.11 | 0.8 |  |
| NCI-H1623 |  |  |  |  |  |  |  |  |  | 0.44 | 0.513 | 0.383 | 0.476 | 0.651 |  |  |  |  |  |  |
| NCI-H1648 | 0.55 | 0.65 | 0.85 | 0.675 | 0.922 | 0.472 | 0.42 | 1.46 | 1 |  |  |  |  |  |  |  |  |  |  | 0.695 |
| NCI-H1703 |  |  |  |  |  |  |  |  |  |  |  |  |  |  | 0.449 | 0.347 | 0.227 | 0.483 |  |  |
| NCI-H1792 | 0.45 | 0.637 | 0.461 | 0.372 |  |  |  |  |  | 0.507 | 0.496 | 0.427 |  | 0.42 | 0.982 | 0.902 | 0.984 | 0.997 | 0.883 | 0.433 |
| NCI-H1793 | 0.36 | 0.474 | 0.499 | 0.369 | 0.721 | 0.712 | 0.602 | 0.424 | 0.496 | 0.152 | 0.311 | 0.171 |  | 0.165 |  |  |  |  |  | 0.457 |
| NCI-H1944 | 0.416 | 0.414 | 0.425 | 0.428 | 0.662 | 0.572 | 0.463 | 0.481 | 0.261 | 0.993 | 0.677 | 0.688 | 0.513 | 0.573 |  |  |  |  |  | 0.442 |
| NCI-H2170 | 0.473 | 0.494 | 0.494 | 0.431 | 0.797 | 0.8 | 0.763 | 0.538 | 0.484 | 0.577 | 0.6 | 0.712 | 0.748 | 0.823 |  |  |  |  |  | 0.474 |
| NCI-H2228 |  |  |  |  | 0.842 | 0.524 | 0.891 | 0.543 | 0.456 | 0.131 | 0.132 | 0.131 | 0.144 | 0.175 | 0.983 | 1 | 1.2 | 1.04 | 0.919 |  |
| NCI-H2342 | 0.664 | 0.755 | 0.814 | 0.687 | 0.834 | 0.746 | 0.752 | 0.468 | 0.743 | 0.645 | 0.756 | 0.619 | 0.52 | 0.494 |  |  |  |  |  | 0.579 |
| SK-MES-1 | 0.348 | 0.375 | 0.372 | 0.333 | 1.22 | 0.968 | 0.868 | 0.819 | 0.597 | 0.779 | 0.951 | 0.718 | 0.735 | 0.793 |  |  |  |  |  | 0.358 |
| SW 900 | 0.412 | 0.453 | 0.42 | 0.456 | 0.651 | 0.602 | 0.76 | 0.61 | 0.621 | 0.165 | 0.194 | 0.158 | 0.177 | 0.195 |  |  |  |  |  | 0.442 |
